Assay results published in US20230167118A1, “DEGRADATION OF BRUTON'S TYROSINE KINASE (BTK) BY CONJUGATION OF BTK INIDBITORS WITH E3 LIGASE LIGAND AND METHODS OF USE” (BEIGENE, LTD., priority 2020, published 2023).

What was measured:
HEK-293 cells = assay: HEK-293 Cytotoxicity Assay (CellTiter-Glo); type: cell-based; details: Homo sapiens, HEK293, 72 h incubation, CellTiter-Glo luminescence
Method in brief: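 Four-parameter fit of % inhibition gives IC50, from CellTiter-Glo luminescent viability read-out. Cells exposed for 72 h to an 8-point, 4-fold series at 0.2% DMSO.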

BTK = target: T1, BTK (Homo sapiens, UniProt Q06187); assay: Cell Degradation: BTK degradation in TMD-8 cells, HTRF assay; type: cell-based; details: 6 h treatment, IC50 (DC50) of BTK degradation
T1 construct: High control=Cell group with added DMSO and without compound, indicating microplate readings without BTK degradation; endogenous in cells; host or cells: TMD-8 cells
Method in brief: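 BTK levels read by HTRF (665 vs 620 nm) in lysates of TMD-8 cells after 6 h compound exposure (eight doses, 6-fold steps, 0.2% DMSO). Percent degradation relative to controls; four-parameter curve fitting gave DC50, with Dmax the top degradation.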

T1 sequence (Q06187 whole entry): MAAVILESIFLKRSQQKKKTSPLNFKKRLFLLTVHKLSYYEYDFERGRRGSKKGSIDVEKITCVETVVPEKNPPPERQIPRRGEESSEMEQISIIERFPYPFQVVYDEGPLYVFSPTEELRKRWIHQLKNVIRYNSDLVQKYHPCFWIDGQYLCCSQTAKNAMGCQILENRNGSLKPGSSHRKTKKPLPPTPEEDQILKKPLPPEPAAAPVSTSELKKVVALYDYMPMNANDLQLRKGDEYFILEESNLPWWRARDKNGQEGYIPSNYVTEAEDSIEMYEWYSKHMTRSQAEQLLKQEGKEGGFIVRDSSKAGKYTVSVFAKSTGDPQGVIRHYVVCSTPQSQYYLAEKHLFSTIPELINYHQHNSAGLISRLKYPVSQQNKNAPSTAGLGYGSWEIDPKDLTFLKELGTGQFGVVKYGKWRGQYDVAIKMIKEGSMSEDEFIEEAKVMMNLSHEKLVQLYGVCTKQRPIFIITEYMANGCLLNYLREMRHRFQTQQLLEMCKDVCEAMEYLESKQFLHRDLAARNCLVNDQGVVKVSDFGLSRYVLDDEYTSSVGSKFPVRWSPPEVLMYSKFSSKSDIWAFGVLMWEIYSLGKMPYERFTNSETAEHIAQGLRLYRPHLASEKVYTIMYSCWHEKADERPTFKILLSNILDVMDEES

| Compound | IC50 (HEK-293 cells) | DC50 (BTK) |
| --- | --- | --- |
| Cc1nn(C2CCN(CC3CCN(c4ccc(N5CCC(=O)NC5=O)cc4)CC3)CC2)c(C)c1-c1cc2c(-c3ccc([C@@H](C)NC(=O)c4cn(C(C)(C)C)nn4)c(CO)c3)ncnc2[nH]1 [Example 122, (R)-1-(tert-butyl)-N-(1-(4-(6-(1-(1-((1-(4-(2,4-dioxotetrahydropyrimidin-1(2H)-yl)phenyl)piperidin-4-yl)methyl)piperidin-4-yl)-3,5-dimethyl-1H-pyrazol-4-yl)-7H-pyrrolo[2,3-d]pyrimidin-4-yl)-2-(hydroxymethyl)phenyl)ethyl)-1H-1,2,3-triazole-4-carboxamide] | 4110 nM | 0.29 nM |
| Cc1cc(-c2ncnc3[nH]c(-c4ccc(N5CCN(CC6CCN(c7ccc(N8CCC(=O)NC8=O)c(C)c7)CC6)CC5)cn4)cc23)ccc1[C@@H](C)NC(=O)c1noc(C2(CO)CC2)n1 [Example 123, (R)-N-(1-(4-(6-(5-(4-((1-(4-(2,4-dioxotetrahydropyrimidin-1(2H)-yl)-3-methylphenyl)piperidin-4-yl)methyl)piperazin-1-yl)pyridin-2-yl)-7H-pyrrolo[2,3-d]pyrimidin-4-yl)-2-methylphenyl)ethyl)-5-(1-(hydroxymethyl)cyclopropyl)-1,2,4-oxadiazole-3-carboxamide] | > 10000 nM | 0.16 nM |
| Cc1cc(-c2ncnc3[nH]c(-c4ccc(N5CCN(CC6CCN(c7ccc(N8CCC(=O)NC8=O)cc7)CC6)CC5)cn4)cc23)ccc1[C@@H](C)NC(=O)c1noc(C2(C)CC2)n1 [Example 124, (R)-N-(1-(4-(6-(5-(4-((1-(4-(2,4-dioxotetrahydropyrimidin-1(2H)-yl)phenyl)piperidin-4-yl)methyl)piperazin-1-yl)pyridin-2-yl)-7H-pyrrolo[2,3-d]pyrimidin-4-yl)-2-methylphenyl)ethyl)-5-(1-methylcyclopropyl)-1,2,4-oxadiazole-3-carboxamide] | > 10000 nM | 1.01 nM |
| Cc1cc(-c2ncnc3[nH]c(-c4ccc(N5CCN(CC6CCN(c7ccc(N8CCC(=O)NC8=O)c(C)c7)CC6)CC5)cn4)cc23)ccc1[C@@H](C)NC(=O)c1noc(C2(C)CC2)n1 [Example 125, (R)-N-(1-(4-(6-(5-(4-((1-(4-(2,4-dioxotetrahydropyrimidin-1(2H)-yl)-3-methylphenyl)piperidin-4-yl)methyl)piperazin-1-yl)pyridin-2-yl)-7H-pyrrolo[2,3-d]pyrimidin-4-yl)-2-methylphenyl)ethyl)-5-(1-methylcyclopropyl)-1,2,4-oxadiazole-3-carboxamide] | > 10000 nM | 0.74 nM |
| Cc1cc(-c2ncnc3[nH]c(-c4ccc(N5CCN(CC6CCN(c7ccc(N8CCC(=O)NC8=O)c(C)c7)CC6)CC5)nc4)cc23)ccc1[C@@H](C)NC(=O)c1noc(C2(C)CC2)n1 [Example 126, (R)-N-(1-(4-(6-(6-(4-((1-(4-(2,4-dioxotetrahydropyrimidin-1(2H)-yl)-3-methylphenyl)piperidin-4-yl)methyl)piperazin-1-yl)pyridin-3-yl)-7H-pyrrolo[2,3-d]pyrimidin-4-yl)-2-methylphenyl)ethyl)-5-(1-methylcyclopropyl)-1,2,4-oxadiazole-3-carboxamide] | > 10000 nM | 0.41 nM |
| Cc1c([C@@H](C)NC(=O)c2noc(C(C)(C)C)n2)ccc(-c2ncnc3[nH]c(-c4ccc(N5CCN(CC6CCN(c7ccc(N8CCC(=O)NC8=O)cc7)CC6)CC5)cn4)cc23)c1F [Example 127, (R)-5-(tert-butyl)-N-(1-(4-(6-(5-(4-((1-(4-(2,4-dioxotetrahydropyrimidin-1(2H)-yl)phenyl)piperidin-4-yl)methyl)piperazin-1-yl)pyridin-2-yl)-7H-pyrrolo[2,3-d]pyrimidin-4-yl)-3-fluoro-2-methylphenyl)ethyl)-1,2,4-oxadiazole-3-carboxamide] | > 10000 nM | 0.42 nM |
| Cc1cc(N2CCC(CN3CCN(c4ccc(-c5cc6c(-c7ccc([C@@H](C)NC(=O)c8noc(C(C)(C)C)n8)c(C)c7F)ncnc6[nH]5)nc4)CC3)CC2)ccc1N1CCC(=O)NC1=O [Example 128, (R)-5-(tert-butyl)-N-(1-(4-(6-(5-(4-((1-(4-(2,4-dioxotetrahydropyrimidin-1(2H)-yl)-3-methylphenyl)piperidin-4-yl)methyl)piperazin-1-yl)pyridin-2-yl)-7H-pyrrolo[2,3-d]pyrimidin-4-yl)-3-fluoro-2-methylphenyl)ethyl)-1,2,4-oxadiazole-3-carboxamide] | > 10000 nM | 0.47 nM |
| Cc1cc(-c2ncnc3[nH]c(-c4ccc(N5CCN(CC6CCN(c7ccc(N8CCC(=O)NC8=O)c(C)c7)CC6)CC5)cn4)cc23)ccc1[C@@H](C)NC(=O)c1noc(C(C)(C)C)n1 [Example 129, (R)-5-(tert-butyl)-N-(1-(4-(6-(5-(4-((1-(4-(2,4-dioxotetrahydropyrimidin-1(2H)-yl)-3-methylphenyl)piperidin-4-yl)methyl)piperazin-1-yl)pyridin-2-yl)-7H-pyrrolo[2,3-d]pyrimidin-4-yl)-2-methylphenyl)ethyl)-1,2,4-oxadiazole-3-carboxamide] | > 10000 nM | 0.33 nM |
| Cc1cc(-c2ncnc3[nH]c(-c4ccc(N5CCN(CC6CCN(c7ccc(N8CCC(=O)NC8=O)c(C)c7)CC6)CC5)cn4)cc23)c(F)cc1[C@@H](C)NC(=O)c1noc(C(C)(C)C)n1 [Example 130, (R)-5-(tert-butyl)-N-(1-(4-(6-(5-(4-((1-(4-(2,4-dioxotetrahydropyrimidin-1(2H)-yl)-3-methylphenyl)piperidin-4-yl)methyl)piperazin-1-yl)pyridin-2-yl)-7H-pyrrolo[2,3-d]pyrimidin-4-yl)-5-fluoro-2-methylphenyl)ethyl)-1,2,4-oxadiazole-3-carboxamide] | > 10000 nM | 0.79 nM |
| Cc1cc(-c2ncnc3[nH]c(-c4ccc(N5CCN(CC6CCN(c7ccc(N8CCC(=O)NC8=O)cc7)CC6)CC5)nc4)cc23)c(F)cc1[C@@H](C)NC(=O)c1noc(C(C)(C)C)n1 [Example 131, (R)-5-(tert-butyl)-N-(1-(4-(6-(6-(4-((1-(4-(2,4-dioxotetrahydropyrimidin-1(2H)-yl)phenyl)piperidin-4-yl)methyl)piperazin-1-yl)pyridin-3-yl)-7H-pyrrolo[2,3-d]pyrimidin-4-yl)-5-fluoro-2-methylphenyl)ethyl)-1,2,4-oxadiazole-3-carboxamide] | > 10000 nM | 0.59 nM |
| Cc1cc(-c2ncnc3[nH]c(-c4ccc(N5CCN(CC6CCN(c7ccc(N8CCC(=O)NC8=O)c(C)c7)CC6)CC5)nc4)cc23)c(F)cc1[C@@H](C)NC(=O)c1noc(C(C)(C)C)n1 [Example 132, (R)-5-(tert-butyl)-N-(1-(4-(6-(6-(4-((1-(4-(2,4-dioxotetrahydropyrimidin-1(2H)-yl)-3-methylphenyl)piperidin-4-yl)methyl)piperazin-1-yl)pyridin-3-yl)-7H-pyrrolo[2,3-d]pyrimidin-4-yl)-5-fluoro-2-methylphenyl)ethyl)-1,2,4-oxadiazole-3-carboxamide] | > 10000 nM | 0.79 nM |
| Cc1cc(-c2ncnc3[nH]c(-c4ccc(N5CCN(CC6CCN(c7ccc(N8CCC(=O)NC8=O)cc7)CC6)CC5)cn4)cc23)ccc1[C@@H](C)NC(=O)c1noc(C(C)(C)C)n1 [Example 133, (R)-5-(tert-butyl)-N-(1-(4-(6-(5-(4-((1-(4-(2,4-dioxotetrahydropyrimidin-1(2H)-yl)phenyl)piperidin-4-yl)methyl)piperazin-1-yl)pyridin-2-yl)-7H-pyrrolo[2,3-d]pyrimidin-4-yl)-2-methylphenyl)ethyl)-1,2,4-oxadiazole-3-carboxamide] | > 10000 nM | 0.8 nM |
| Cc1cc(-c2ncnc3[nH]c(-c4ccc(N5CCN(CC6CCN(c7ccc(N8CCC(=O)NC8=O)cc7)CC6)CC5)cn4)cc23)c(F)cc1[C@@H](C)NC(=O)c1noc(C(C)(C)C)n1 [Example 134, (R)-5-(tert-butyl)-N-(1-(4-(6-(5-(4-((1-(4-(2,4-dioxotetrahydropyrimidin-1(2H)-yl)phenyl)piperidin-4-yl)methyl)piperazin-1-yl)pyridin-2-yl)-7H-pyrrolo[2,3-d]pyrimidin-4-yl)-5-fluoro-2-methylphenyl)ethyl)-1,2,4-oxadiazole-3-carboxamide] | > 10000 nM | 0.54 nM |
| C[C@@H](NC(=O)c1noc(C(C)(C)C)n1)c1ccc(-c2ncnc3[nH]c(-c4ccc(N5CCN(CC6CCN(c7ccc(N8CCC(=O)NC8=O)cc7)CC6)CC5)cn4)cc23)cc1CO [Example 136, (R)-5-(tert-butyl)-N-(1-(4-(6-(5-(4-((1-(4-(2,4-dioxotetrahydropyrimidin-1(2H)-yl)phenyl)piperidin-4-yl)methyl)piperazin-1-yl)pyridin-2-yl)-7H-pyrrolo[2,3-d]pyrimidin-4-yl)-2-(hydroxymethyl)phenyl)ethyl)-1,2,4-oxadiazole-3-carboxamide] | > 10000 nM | 0.17 nM |
| Cc1cc(N2CCC(CN3CCN(c4ccc(-c5cc6c(-c7ccc([C@@H](C)NC(=O)c8noc(C(C)(C)C)n8)c(CO)c7)ncnc6[nH]5)nc4)CC3)CC2)ccc1N1CCC(=O)NC1=O [Example 137, (R)-5-(tert-butyl)-N-(1-(4-(6-(5-(4-((1-(4-(2,4-dioxotetrahydropyrimidin-1(2H)-yl)-3-methylphenyl)piperidin-4-yl)methyl)piperazin-1-yl)pyridin-2-yl)-7H-pyrrolo[2,3-d]pyrimidin-4-yl)-2-(hydroxymethyl)phenyl)ethyl)-1,2,4-oxadiazole-3-carboxamide] | > 10000 nM | 0.23 nM |
